The record followed here is ChEMBL document CHEMBL1201862, “PubChem BioAssay data set” (2004).

What is called EC50 is the concentration at which the effect is half-maximal. As usually defined, the AC50 is the concentration giving half of the maximal activity seen. In general, IC50 refers to the point on the concentration scale where inhibition reaches its midpoint.

One test addresses T1, Protein RecA (Mycobacterium tuberculosis, UniProt P9WHJ3).
T1 sequence (P9WHJ3 whole entry): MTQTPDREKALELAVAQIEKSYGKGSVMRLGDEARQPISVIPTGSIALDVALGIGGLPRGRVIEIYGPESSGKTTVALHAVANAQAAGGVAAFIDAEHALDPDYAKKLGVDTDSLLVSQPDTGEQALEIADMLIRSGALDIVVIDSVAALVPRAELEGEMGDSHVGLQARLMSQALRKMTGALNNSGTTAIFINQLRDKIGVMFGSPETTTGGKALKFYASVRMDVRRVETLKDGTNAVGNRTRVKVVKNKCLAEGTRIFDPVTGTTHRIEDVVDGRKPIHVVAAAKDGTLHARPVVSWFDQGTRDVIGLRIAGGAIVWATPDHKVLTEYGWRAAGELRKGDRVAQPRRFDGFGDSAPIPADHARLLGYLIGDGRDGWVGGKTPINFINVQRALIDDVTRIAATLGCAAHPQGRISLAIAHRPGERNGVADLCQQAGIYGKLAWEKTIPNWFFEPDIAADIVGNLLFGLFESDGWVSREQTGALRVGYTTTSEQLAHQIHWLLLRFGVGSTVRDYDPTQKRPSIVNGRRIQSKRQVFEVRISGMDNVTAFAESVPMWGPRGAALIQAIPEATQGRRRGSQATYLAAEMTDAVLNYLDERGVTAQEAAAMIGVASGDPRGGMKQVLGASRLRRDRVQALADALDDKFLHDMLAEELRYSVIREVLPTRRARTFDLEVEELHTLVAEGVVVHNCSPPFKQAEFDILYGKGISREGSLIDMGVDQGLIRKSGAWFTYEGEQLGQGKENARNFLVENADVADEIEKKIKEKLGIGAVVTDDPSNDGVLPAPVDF
The test can be described thus: Fluorescence Cell-Free Homogeneous Dose Retest to Identify Inhibitors of RecA-Intein Splicing Activity. [Related pubchem assays (depositor defined):AID2097, AID2223, AID489010, AID492950]. Format: functional.

Test [1] addresses T2, Replicative DNA helicase DnaB (Mycobacterium tuberculosis, UniProt P9WMR3).
T2 sequence (P9WMR3 whole entry): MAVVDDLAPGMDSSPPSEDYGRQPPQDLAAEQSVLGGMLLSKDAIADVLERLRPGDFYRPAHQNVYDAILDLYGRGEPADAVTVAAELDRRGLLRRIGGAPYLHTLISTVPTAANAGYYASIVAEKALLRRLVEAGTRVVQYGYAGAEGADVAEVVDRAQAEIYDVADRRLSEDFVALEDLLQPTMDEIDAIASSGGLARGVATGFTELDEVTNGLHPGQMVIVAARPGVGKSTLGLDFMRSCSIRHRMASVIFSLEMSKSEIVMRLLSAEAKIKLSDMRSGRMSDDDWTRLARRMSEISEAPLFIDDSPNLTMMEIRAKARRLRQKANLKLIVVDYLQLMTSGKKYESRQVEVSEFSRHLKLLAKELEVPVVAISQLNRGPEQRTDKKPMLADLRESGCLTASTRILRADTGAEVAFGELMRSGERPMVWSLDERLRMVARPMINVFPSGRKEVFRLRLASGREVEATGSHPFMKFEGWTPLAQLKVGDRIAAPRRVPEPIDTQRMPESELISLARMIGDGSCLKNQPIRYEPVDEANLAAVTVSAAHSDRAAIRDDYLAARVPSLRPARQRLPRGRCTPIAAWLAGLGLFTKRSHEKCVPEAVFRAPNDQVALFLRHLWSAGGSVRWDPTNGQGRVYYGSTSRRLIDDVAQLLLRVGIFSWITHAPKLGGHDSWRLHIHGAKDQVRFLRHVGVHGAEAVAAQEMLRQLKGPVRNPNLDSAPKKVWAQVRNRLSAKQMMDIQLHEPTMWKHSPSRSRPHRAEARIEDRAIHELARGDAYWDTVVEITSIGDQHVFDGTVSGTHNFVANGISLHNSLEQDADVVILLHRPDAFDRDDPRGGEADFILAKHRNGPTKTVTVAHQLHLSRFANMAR
The test can be described thus: DnaB intein splicing inhibitors, dose response, biochemical, cell-free fluorescence (AID 449749). Format: functional.

Test [2] is described as follows: Luminescence Cell-Based Dose Confirmation HTS to Identify Activators of 5'UTR Stem-Loop Driven Alpha-Synuclein mRNA Translation in H4 Neuroglioblastoma Cells. [Related pubchem assays: 1829 (Project Summary), 1814 (Primary HTS)]. It is filed as functional.
The next test relates to H4. The test can be described thus: Luminescence Cell-Based Dose Response HTS to Identify Activators of 5'UTR Stem-Loop Driven Prion Protein mRNA Translation in H4 Neuroglioblastoma Cells. [Related pubchem assays: 1829 (Project Summary), 1814 (Primary HTS)]. It is filed as functional. To be noted: Homo sapiens.
Test [3] can be described thus: Luminescence Cell-Based Dose Response HTS to Identify Activators of Luciferase Translation or Activity in H4 […] Cells. [Related pubchem assays: 1829 (Project Summary), 1814 (Primary HTS)]. It is filed as functional.
In test [4] the target is T3, Rac GTPase-activating protein 1 (Homo sapiens, UniProt Q9H0H5).
T3 sequence (Q9H0H5 whole entry): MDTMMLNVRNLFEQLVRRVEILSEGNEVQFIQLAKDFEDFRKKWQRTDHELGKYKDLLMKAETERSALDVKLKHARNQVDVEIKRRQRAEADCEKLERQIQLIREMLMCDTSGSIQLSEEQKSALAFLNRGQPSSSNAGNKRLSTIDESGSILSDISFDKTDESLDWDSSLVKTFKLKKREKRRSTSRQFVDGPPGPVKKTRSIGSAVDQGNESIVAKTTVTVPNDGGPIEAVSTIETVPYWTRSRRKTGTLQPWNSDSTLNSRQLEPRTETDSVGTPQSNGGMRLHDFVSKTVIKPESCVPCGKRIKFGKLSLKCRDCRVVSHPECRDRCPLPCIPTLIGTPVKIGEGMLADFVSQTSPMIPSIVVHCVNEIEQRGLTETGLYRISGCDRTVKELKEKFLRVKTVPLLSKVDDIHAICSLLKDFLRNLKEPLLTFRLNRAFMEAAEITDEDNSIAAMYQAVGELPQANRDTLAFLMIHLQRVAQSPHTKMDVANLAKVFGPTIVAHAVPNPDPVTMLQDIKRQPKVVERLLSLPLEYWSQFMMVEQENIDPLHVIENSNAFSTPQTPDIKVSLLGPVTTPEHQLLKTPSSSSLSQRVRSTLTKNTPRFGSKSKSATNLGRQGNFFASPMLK
The test can be described thus: MgcRacGAP GTPase-activating activity inhibitors, confirmation, biochemical, ADP Hunter fluorescence, primary and confirmatory (AID 624330). It is filed as functional.

Test [5] in a line: Luminescence Cell-Based Dose Retest to Confirm Inhibitors of Cancer Stem Cells. [Related pubchem assays (depositor defined):AID2717, AID2721]. It is filed as functional. To be noted: Homo sapiens.
A short description of test [6]: microbe, parasite or virus in culture. Format: functional. To be noted: Mycobacterium tuberculosis.
The nature of test [7]: cytotoxicity toward NIH3T3 fibroblasts, dose response, counter-screen, cell-based, ATP luminescence, mouse fibroblasts (AID 2010).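 Note: cells exposed to compound for about 90 hours before reading.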 Format: functional.
Test [8] in a line: inhibitors of intracellular T. cruzi replication, confirmation, NIH3T3 host cells, beta-gal luminescence (AID 2044).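 Note: intracellular parasites grown in NIH/3T3 mouse fibroblasts as host cells; luminescent beta-galactosidase reporter signal from transgenic T. cruzi replicating inside host cells; inhibitors lower the luminescence signal.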 Format: functional, cell-based.
Another test relates to H9c2. The test can be described thus: cells. The conditions noted are these: Rattus norvegicus, H9c2, Myocardium. Format: functional, cell-based.

Each structure is given as a SMILES string. Activity calls are given as the source filed them. Cut-off read from the data, not from the text of the source, for most assays here: actives have a measured EC50 and inactives only a lower limit.

As to `NC(=O)[C@H](Cc1cc2ccccc2s1)NC(=O)[C@@H]1CC2(CC(c3cccc(NC(=O)[C@@H]4CCC(=O)N4)c3)=NO2)CN1C(=O)/C=C/c1c(F)cccc1Cl` (some centres not stated), the 50% effective concentration (EC50) at Protein RecA was 168 µM (active). The AC50 in [1] is 20 µM (active).
With `Brc1ccc(C2=NC(Cc3ccccc3)CO2)cc1` (configuration not stated), the EC50 in test [2] was 3.58 µM (active); in the test on H4, 7.48 µM (active); in test [3], 3.81 µM (active).
Take `O=C(Nc1ccccc1Cl)Oc1ccc(-c2ccccc2)cc1`: the IC50 in test [4] is 11.3 µM (active).
As to `COc1ccc(S[C@@H](CCN2CC[C@H](NC(=O)OCc3ccccc3)CCC2=O)c2ccccc2)cc1`, the half-maximal activity concentration (AC50) in [5] was 3.09 µM (active).
Regarding `O=C(NCc1nnnn1-c1ccc(F)cc1)c1ccc([N+](=O)[O-])o1`, the CC50 in test [6] is 19.3 µM (active). The EC50 in [2] is 8.58 µM (active); with H4, 29 µM (active); in test [3] it was > 60 µM (not active).
As to `CN1C2=CC=CC=CC2=[N+](C)C12C([N+](=O)[O-])=CC(=[N+]([O-])[O-])C=C2[N+](=O)[O-]` (configuration not stated), the EC50 (in test [2]; with H4; in test [3]) was > 120 µM (not active) throughout.
For the compound `CC(/C=N/n1c(S)nnc1C1CCCCC1)=C\c1ccccc1`, the CC50 in [6] is > 40 µM (active). In addition, the AC50 in [5] is 4.26 µM (active).
`O=C(Nc1ccc(O)cc1)c1ccccc1OCc1ccccc1`: the IC50 in test [4] is 30.1 µM (active).
On to `Cc1nc(S(=O)(=O)N(C)Cc2ccccc2)c(C#N)c(C)c1Cl`, for which the concentration for a half-maximal effect (EC50) in test [2] was 5.83 µM (active); in the test with H4, > 120 µM (not active); in [3], 60.4 µM (active).
As to `CCOc1ccccc1N(C(=O)Nc1ccc(Cl)cc1)C1=NCCS1`, the half-maximal activity concentration (AC50) in test [5] was 5.46 µM (active).
For `Cc1ccc(-c2ccc(NC(=O)C3C4C=CC(C4)C3C(=O)O)cc2)o1` (configuration not stated), the EC50 in [2] was 2.07 µM (active); in the test with H4, > 120 µM (not active); in [3] it was 33.5 µM (active).
On to `CC(=O)N(CCC(Cc1ccccc1)c1ccc2c(c1)OCO2)Cc1ccccc1F` (configuration not stated), for which the EC50 at Protein RecA was 5.78 µM (active). Besides, the half-maximal activity concentration (AC50) in test [1] was 3.39 µM (active).
Take `O=C(NNC(=O)c1ccc([N+](=O)[O-])o1)c1ccccc1`: the EC50 is 13.5 µM (active) on Protein RecA, > 60 µM (not active) in test [7] and 0.13 µM (active) in [8]. Also, in [1], the concentration at half-maximal activity (AC50) was 23.5 µM (active).
Consider `O=C(CN1C(=O)S/C(=C\c2ccc(O)cc2)C1=O)c1ccccc1`, for which the figures for the half-maximal effective concentration (EC50) (in test [2]; in the test on H4; in test [3]) were 6.38 µM (active), 26 µM (active) and 6.77 µM (active), respectively.
Consider `O=C(NCCCNC(=O)c1nc[nH]c1C(=O)Nc1cccc(Cl)c1)c1nc[nH]c1C(=O)Nc1cccc(Cl)c1`, for which, in the test on H9c2, the IC50 was > 79 µM (inactive). Also, in test [5], the half-maximal activity concentration (AC50) is 3.78 µM (active).
Turning to `Cn1c(N)c(-c2nc3cccnc3n2C)sc1=S`, the results for the 50% effective concentration (EC50) (in test [2]; in the test on H4; in test [3]) were > 120 µM (not active), > 120 µM (not active) and 9.72 µM (active), respectively.
For `CCO/C(O)=C1/Sc2ccccc2N=C1C`, in test [4], the IC50 is 53.5 µM (active).
For `CCOC(=O)C(=O)NNc1ccc(F)cc1`, the AC50 in test [5] is 0.837 µM (active).
For the compound `COc1ccc(/C=C2/C(=O)N(c3ccccc3)N=C2C)cc1OC`, the EC50 on Protein RecA is 1.46 µM (active). Further, the AC50 in [1] is 3.78 µM (active).
On to `O=C(O)c1cc(NN=C2CCN(Cc3ccccc3)CC2)ccc1Cl`, for which the values for the EC50 (in [2]; with H4; in [3]) were > 120 µM (not active), 18.7 µM (active) and 22.9 µM (active), respectively.
For the compound `O=C(Nc1ccc(O)cc1)c1cc2n(n1)C(C(F)(F)F)CC(c1ccco1)N2` (configuration not stated), the IC50 in [4] is 27.7 µM (active).
As to `O=C(CSCc1cc(O)n[nH]1)Nc1ccc(F)cc1`, on Protein RecA, the EC50 was 1.74 µM (active). In [1], the concentration at half-maximal activity (AC50) is 4.04 µM (active).
On to `OCc1ccc[n+](/C(C([S-])=Nc2ccc(SC(F)F)cc2)=C(/O)c2ccc(Cl)s2)c1`, for which the EC50 in [2] is 13.4 µM (active); in the test on H4 it was 18.2 µM (active); in test [3] it was 14.2 µM (inconclusive).
Regarding `Cc1cc(NC(=O)/C=C/c2ccc(Cl)cc2)no1`, the half-maximal activity concentration (AC50) in [5] was 22.8 µM (active).
With `CC1CCCC2(C1)N=C(S)c1c(sc3c1CCCC3)N2` (configuration not stated), the EC50 (in test [2]; in the test on H4; in [3]) was > 120 µM (not active) throughout.
In the case of `Cc1ccccc1Nc1nc(N)nc(COC(=O)c2ccccc2)n1`, the results for the EC50 (in test [2]; in the test with H4; in test [3]) were 40.5 µM (active), 25.7 µM (active) and 25.1 µM (active), respectively.
Take `COc1cc(C(=O)CSc2nnc(-c3ccc(O)cc3)n2CC2CCCO2)ccc1NC(C)=O` (configuration not stated): the EC50 at Protein RecA is > 380 µM (inactive). Further, in test [1], the AC50 was > 380 µM (inactive).
Turning to `Cc1ccc2c(c1)c1c(n2CC(O)CN2CCCCCC2)CCCC1` (configuration not stated), the EC50 on Protein RecA was > 380 µM (inactive). The AC50 in test [1] was > 380 µM (inactive).
Turning to `NC(=O)CC(NC(=O)Cc1ccc(Br)cc1)c1ccc(NC2CC3CCC2C3)c([N+](=O)[O-])c1` (configuration not stated), the concentration at half-maximal activity (AC50) in [5] is 6.22 µM (active).
Still for that read-out and setting: for `Cc1ccc(CNc2cnn(C34CC5CC(CC(C5)C3)C4)c(=O)c2Cl)cc1` the value was 1.18 µM (active).
Turning to `COc1ccc2oc(=O)c(-c3nc4ccccc4o3)cc2c1`, the half-maximal effective concentration (EC50) in [2] was 3.5 µM (active); with H4, 24.1 µM (active); in [3] it was 17.2 µM (active).
